Assay [1] is described as follows: DPPH radical scavenging assay. The note with it: for DPPH Scavenging at 0.1 mM, %: 0.1 mM compound; for DPPH Scavenging at 1 mM, %: 1 mM compound; for IC50: n in brackets. On the procedure:
The direct antioxidant effects of compounds 3 were investigated by studying their radical-scavenging effect on the 2,2-diphenyl-1-picrylhydrazyl free radical (DPPH^•). Thus, a 100 μL volume of a methanol solution of each compound was added to 200 μL of 100 μM methanolic DPPH^•, and the solution was kept in the dark at 37 °C for 30 min in a 96-well microliter plate. After this incubation, the absorption at 490 nm of each solution was measured with a microplate reader in order to quantitate its decrease. A blank reading was also taken to calculate the amount of remaining DPPH^•. The radical-scavenging activity exerted by compounds 3 was determined by comparison with a 10 μL of MeOH-treated blank group. Ascorbic acid, a well-known antioxidant acting as a radical scavenger, was used as reference. All samples were analyzed in triplicate. Percent inhibition of the DPPH^• radical was calculated using the equation shown below, where AbsCtrl is the absorbance of the blank group and Abss is the absorbance of the samples containing compounds 3. For each compound showing a percentage of inhibition above 60%, the IC50 value was determined using a dose–response curve obtained from measurements corresponding to at least six concentrations. %Scavenger=AbsCtrl−AbsS/AbsCtrl×100
The radical scavenging activity of all compounds was first studied by the DPPH assay, which measures the ability of antioxidant compounds to donate a hydrogen atom to the violet 2,2-diphenyl-1-picrylhydrazyl radical and transform it into a nonradical species. Thus, it is generally considered to belong to the hydrogen atom transfer (HAT) category of methods for measurement of antioxidant activity.

The subject of another assay is Nrf2. In words: Nrf2 induction, luciferase assay in AREc32 cells. The settings on record: Arec32, 24 h, read-out: CD (concentration that doubles luciferase activity). Type of assay: cell-based. As for the experimental part: AREc32 cells (kindly shared by Dr. Professor Ronald C. Wolf, University of Dundee, Dundee, UK) were grown in Dulbecco’s modified Eagle medium (DMEM) with glutamax, supplemented with 10% fetal bovine serum (FBS), 1% of antibiotics penicillin–streptomycin, and geneticin (0.8 mg/mL, G418) (GIBCO, Madrid, Spain). Cells were harvested in a […] flask with 11 mL of the specified medium, incubated at 37 °C and 5% CO2, and they were transferred to a new flask every 4–6 days, when the confluence was around 80%. Cells were seeded in 96-well white plates (20,000 cells/well) using 100 μL/well. After 24 h, cells were treated with compounds at desired concentrations (1, 5, 10, 15 μM) for 24 h, including tert-butyl hydroquinone (TBHQ, 10 μM) as a positive control. Another 24 h later, luciferase activity was measured through a bioluminescence assay using a “Luciferase assay system” (Promega E1500, Madison, WI, USA), following the protocol given by the provider, and quantifying luminescence in an Orion II microplate luminometer (Berthold, Germany). Measurements were performed by duplicate, and the values were normalized to basal luminescence considered as 1. Nrf2 induction potency was expressed as CD values, i.e., the concentrations required to double the luciferase activity, and are calculated from dose–response curves generated by plotting fold induction of control conditions vs. compound concentration, and fitted by non-linear regression and data interpolated to value 2.
The ability of our compounds to induce Nrf2 was evaluated in the AREc32 cell line, an MCF7 stable clone that is transfected with eight copies of the luciferase reporter gene immediately after the ARE sequence. Therefore, Nrf2 activation and the subsequent transcription of the genes dependent on the ARE element also leads to expression of luciferase, which can be quantitated using a luminescence assay. AREc32 cells were incubated for 24 h with 0.3, 3, 10, 30, and 60 μM concentrations of compounds 3, and a luminescence measurement allowed CD values to be obtained. This parameter characterizes the Nrf2-inducing ability of each compound and represents the concentration required to double the luciferase activity compared to its basal expression.

The subject of the next assay is SH-SY5Y cells. In words: Neuroprotection against rotenone/oligomycin A in SH-SY5Y cells (MTT). Type of assay: cell-based. The settings on record: Homo sapiens, 24 h, 1 µM compound, rotenone 30 µM + oligomycin A 10 µM, read-out: % Neuroprotection ± SEM at 1 µM (rotenone/oligomycin A). As for the experimental part: To evaluate the compounds for their neuroprotective effect in an oxidative stress model, we selected the rotenone (30 μM) and oligomycin A (10 μM) (R/O) cocktail, which disturbs the flow of electrons in the mitochondrial respiratory chain. Similarly, SH-SY5Y cells were preincubated with compounds 3 at 1 μM for 24 h. Then, they were co-incubated in the presence of R/O for a further 24 h, evaluating cell viability by the MTT reduction method.
Thus, the R/O combination constitutes a good model of oxidative stress and neurodegeneration with a mitochondrial origin, and has been broadly employed to evaluate potential hit compounds for the treatment of neurodegenerative diseases. Furthermore, treatment of laboratory animals with rotenone is known to induce many features associated to Parkinson’s disease, such as selective nigrostriatal dopaminergic degeneration and the appearance of α-synuclein cytoplasmic inclusions, which are associated with oxidative damage.

Where only a bound is given, the exact number is not on record here.

The IC50 is the concentration that gives 50% inhibition.

Turning to `COC(=O)C1=C(C)N(Cc2ccccc2)C(=O)/C1=C\c1ccccc1` [Compound 3a, Methyl (Z)-1-Benzyl-4-benzylidene-2-methyl-5-oxo-4,5-dihydro-1H-pyrrole-3-carboxylate], in assay [1], the “DPPH Scavenging at 0.1 mM, %” value is 9.7 ± 3.8% and the “DPPH Scavenging at 1 mM, %” value was 47.5 ± 4.9%. Also, the EC (2-fold luciferase activity) with Nrf2 is 30.2 ± 1.89 µM. Moreover, in the assay with SH-SY5Y cells, the % neuroprotection against rotenone/oligomycin A toxicity at 1 µM came out at 44.3 ± 13.6%.

As to `COC(=O)C1=C(C)N(Cc2ccccc2)C(=O)/C1=C\c1ccc(OC)cc1` [Compound 3b, Methyl (Z)-1-Benzyl-4-(4-methoxybenzylidene)-2-methyl-5-oxo-4,5-dihydro-1H-pyrrole-3-carboxylate], in assay [1], the “DPPH Scavenging at 0.1 mM, %” value was found to be 6.5 ± 4.5% and the “DPPH Scavenging at 1 mM, %” value was found to be 27.2 ± 6.4%. Further, the EC (2-fold luciferase activity) in the assay with Nrf2 was determined as 18 ± 1.84 µM. Further, in the assay with SH-SY5Y cells, the % neuroprotection against rotenone/oligomycin A toxicity at 1 µM worked out at 68 ± 31.5%.

In the case of `COC(=O)C1=C(C)N(Cc2ccccc2)C(=O)/C1=C\c1ccc(Cl)cc1` [Compound 3c, Methyl (Z)-1-Benzyl-4-(4-chlorobenzylidene)-2-methyl-5-oxo-4,5-dihydro-1H-pyrrole-3-carboxylate], in assay [1], the “DPPH Scavenging at 0.1 mM, %” value amounted to 3.7 ± 3.8% and the “DPPH Scavenging at 1 mM, %” value came out at 36.6 ± 3.4%. In the assay on Nrf2, the EC (2-fold luciferase activity) was 15 ± 0.8 µM. Further, the % neuroprotection against rotenone/oligomycin A toxicity at 1 µM in the assay on SH-SY5Y cells is greater than 90%.

Turning to `COC(=O)C1=C(C)N(CCc2ccccc2)C(=O)/C1=C\c1ccc2c(c1)OCO2` [Compound 3d, Methyl (Z)-4-(Benzo[d](1,3)dioxol-5-ylmethylene)-2-methyl-5-oxo-1-phenethyl-4,5-dihydro-1H-pyrrole-3-carboxylate], in assay [1], the “DPPH Scavenging at 0.1 mM, %” value is given as 40.5 ± 5.0% and the “DPPH Scavenging at 1 mM, %” value is 41.6 ± 4.1%. In the assay on Nrf2, the EC (2-fold luciferase activity) turned out to be 17.9 ± 8.58 µM. Further, the % neuroprotection against rotenone/oligomycin A toxicity at 1 µM with SH-SY5Y cells is 49.8 ± 9.46%.

For `COC(=O)C1=C(C)N(CCc2ccccc2)C(=O)/C1=C\c1ccc(OC)cc1OC` [Compound 3e, Methyl (Z)-4-(2,4-Dimethoxybenzylidene)-2-methyl-5-oxo-1-phenethyl-4,5-dihydro-1H-pyrrole-3-carboxylate], in assay [1], the “DPPH Scavenging at 0.1 mM, %” value worked out at 6.33 ± 4.2% and the “DPPH Scavenging at 1 mM, %” value is recorded as 27.0 ± 2.6%. In addition, in the assay on Nrf2, the EC (2-fold luciferase activity) worked out at 10.4 ± 0.8 µM. Also, the % neuroprotection against rotenone/oligomycin A toxicity at 1 µM in the assay on SH-SY5Y cells was 50.3 ± 16.3%.

In the case of `COC(=O)C1=C(C)N(CCc2ccccc2)C(=O)/C1=C\c1cc(OC)c(OC)cc1OC` [Compound 3f, Methyl (Z)-2-Methyl-5-oxo-1-phenethyl-4-(2,4,5-trimethoxybenzylidene)-4,5-dihydro-1H-pyrrole-3-carboxylate], in assay [1], the “DPPH Scavenging at 0.1 mM, %” value was determined as 9.7 ± 0.6% and the “DPPH Scavenging at 1 mM, %” value amounted to 9.7 ± 2.2%. In addition, the EC (2-fold luciferase activity) in the assay with Nrf2 was 31.1 ± 6.21 µM. In the assay on SH-SY5Y cells, the % neuroprotection against rotenone/oligomycin A toxicity at 1 µM came to 51 ± 16.9%.

Consider `COC(=O)C1=C(C)N(CCc2ccccc2)C(=O)/C1=C\c1cc(OC)c(OC)c(OC)c1` [Compound 3g, Methyl (Z)-2-Methyl-5-oxo-1-phenethyl-4-(3,4,5-trimethoxybenzylidene)-4,5-dihydro-1H-pyrrole-3-carboxylate], for which, in assay [1], the “DPPH Scavenging at 0.1 mM, %” value was found to be 8.1 ± 4.7% and the “DPPH Scavenging at 1 mM, %” value is recorded as 46.5 ± 2.3%. The % neuroprotection against rotenone/oligomycin A toxicity at 1 µM in the assay on SH-SY5Y cells turned out to be 74.5 ± 7.19%.

With `COC(=O)C1=C(C)N(CCc2ccccc2)C(=O)/C1=C\c1ccc(OC)c(O)c1` [Compound 3h, Methyl (Z)-4-(3-Hydroxy-4-methoxybenzylidene)-2-methyl-5-oxo-1-phenethyl-4,5-dihydro-1H-pyrrole-3-carboxylate], in assay [1], the “radical scavenging activity in the DPPH assay” value is given as “high radical scavenging activity”; the “DPPH Scavenging at 0.1 mM, %” value is on record as 89.0 ± 0.4%; the IC50 was determined as 26.3 ± 2.1 µM. For the same compound, the EC (2-fold luciferase activity) in the assay with Nrf2 was determined as 36.1 ± 418 µM. In addition, the % neuroprotection against rotenone/oligomycin A toxicity at 1 µM in the assay with SH-SY5Y cells is 46.2 ± 18.9%.

In the case of `COC(=O)C1=C(C)N(CCc2ccccc2)C(=O)/C1=C\c1ccc(O)c(O)c1` [Compound 3i, Methyl (Z)-4-(3,4-Dihydroxybenzylidene)-2-methyl-5-oxo-1-phenethyl-4,5-dihydro-1H-pyrrole-3-carboxylate], in assay [1], the “radical scavenging activity in the DPPH assay” value is “high radical scavenging activity”; the “DPPH Scavenging at 0.1 mM, %” value is 90.9 ± 0.5%; the half-inhibitory concentration (IC50) was 7.5 ± 0.4 µM. For the same compound, the EC (2-fold luciferase activity) with Nrf2 is less than 10 µM. The % neuroprotection against rotenone/oligomycin A toxicity at 1 µM in the assay with SH-SY5Y cells is greater than 90%.

Consider `COC(=O)C1=C(C)N(CCc2ccccc2)C(=O)/C1=C\c1ccc(OCc2ccccc2F)c(OC)c1` [Compound 3j, Methyl (Z)-4-[4-((2-Fluorobenzyl)oxy)-3-methoxybenzylidene]-2-methyl-5-oxo-1-phenethyl-4,5-dihydro-1H-pyrrole-3-carboxylate], for which, in assay [1], the “DPPH Scavenging at 0.1 mM, %” value turned out to be 4.3 ± 2.1% and the “DPPH Scavenging at 1 mM, %” value was found to be 31.3 ± 3.3%. The EC (2-fold luciferase activity) in the assay on Nrf2 came to 11.9 ± 2.83 µM. The % neuroprotection against rotenone/oligomycin A toxicity at 1 µM with SH-SY5Y cells was 51.2 ± 15.5%.

`COC(=O)C1=C(C)N(CCc2ccccc2)C(=O)/C1=C\c1ccc(OCc2ccccc2Cl)c(OC)c1` [Compound 3k, Methyl (Z)-4-[4-((2-Chlorobenzyl)oxy)-3-methoxybenzylidene]-2-methyl-5-oxo-1-phenethyl-4,5-dihydro-1H-pyrrole-3-carboxylate]: in assay [1], the “DPPH Scavenging at 0.1 mM, %” value is 7.3 ±1.4% and the “DPPH Scavenging at 1 mM, %” value was 27.3 ± 1.0%. The EC (2-fold luciferase activity) with Nrf2 is less than 10 µM. In the assay on SH-SY5Y cells, the % neuroprotection against rotenone/oligomycin A toxicity at 1 µM was 60.3 ± 20.9%.

On to `COC(=O)C1=C(C)N(CCc2ccccc2)C(=O)/C1=C\c1ccc(OCc2ccc(Cl)cc2)c(OC)c1` [Compound 3l, Methyl (Z)-4-[4-((4-Chlorobenzyl)oxy)-3-methoxybenzylidene]-2-methyl-5-oxo-1-phenethyl-4,5-dihydro-1H-pyrrole-3-carboxylate], for which, in assay [1], the “DPPH Scavenging at 0.1 mM, %” value is listed as 11.3 ± 2.6%; the “DPPH Scavenging at 1 mM, %” value was 63.5 ± 2.2%; the half-maximal inhibitory concentration (IC50) came out at 712.2 ± 5.4 µM. The EC (2-fold luciferase activity) in the assay with Nrf2 is 14 ± 4.45 µM. The % neuroprotection against rotenone/oligomycin A toxicity at 1 µM with SH-SY5Y cells worked out at 79.8 ± 8.28%.

Regarding `COC(=O)C1=C(C)N(CCc2ccc(OC)c(OC)c2)C(=O)/C1=C\c1ccc(OCc2ccc(Cl)cc2)c(OC)c1` [Compound 3m, Methyl (Z)-4-[4-((4-Chlorobenzyl)oxy)-3-methoxybenzylidene]-1-(3,4-dimethoxyphenethyl)-2-methyl-5-oxo-4,5-dihydro-1H-pyrrole-3-carboxylate], in assay [1], the “DPPH Scavenging at 0.1 mM, %” value is listed as 22.8 ± 0.2%; the “DPPH Scavenging at 1 mM, %” value is 85.5 ± 2.7%; the 50% inhibitory concentration (IC50) came to 334 ± 22.9 µM. For the same compound, the EC (2-fold luciferase activity) with Nrf2 was found to be 21.4 ± 5.72 µM. Moreover, the % neuroprotection against rotenone/oligomycin A toxicity at 1 µM with SH-SY5Y cells amounted to 41.2 ± 18.9%.

Source of the values: publication PMC8230565, “Bisavenathramide Analogues as Nrf2 Inductors and Neuroprotectors in In Vitro Models of Oxidative Stress and Hyperphosphorylation” (Antioxidants, 2021).
